{"source": "patent US6903133B2", "about": "“Anticancer compounds” (Plantaceutica, Inc., priority 2002, dated 2005)"}
{"test_system": "KB cells", "test": "cytotoxicity against KB cells (sulforhodamine B assay)", "format": "cell-based", "details": "KB cells (nasopharyngeal carcinoma cells); result in words only", "method": "Podophyllotoxin derivatives of this invention can be preliminarily screened for their efficacy in treating cancer by in vitro assays. For example, podophyllotoxin derivatives can be tested for their cytotoxicity against KB cells (nasopharyngeal carcinoma). More specifically, a test compound can be added to a culture of KB cells and its IC50 (i.e., the concentration of the test compound which achieves a half-maximal inhibition of cell growth) is determined using the sulforhodamine B (a protein binding dye) assay as described in J.N.C.I. (1990) 82: 1107. The podophyllotoxin derivatives of this invention are also tested for their abilitives to inhibit DNA topoisomerase II in vitro as described in Cho et al. (1996 J. Med. Chem. 39: 1396) and to stimulate protein-linked DNA breaks (PLDB) in KB cells as described in Rowe et al. (1986 Cancer Res. 46:2021). DNA topoisomerase II is a well known target for cancer treatment drugs. See, e.g., MacDonald et al. (1991) DNA Topoisomerase in Cancer; Oxford University Press: New York.\nA number of compounds of this invention were evaluated for cytotoxicity against KB cells, which are nasopharyngeal carcinoma cells. They were also tested for stimulation of cellular protein-linked DNA breaks (PLDB) using etoposide as a positive control. Etopside is a widely-used antineoplastic agent, see, e.g., Zhang et al. (1994) J. Med. Chem. 37: 446."}
{"smiles": "CCOC(=O)c1sc(N[C@@H]2c3cc4c(cc3[C@@H](c3cc(OC)c(O)c(OC)c3)[C@H]3C(=O)OC[C@H]32)OCO4)nc1C", "note": "[Compound 45, 4′-O-demethyl-4β-(5″-ethoxycarbonyl-4″-methyl-2″-thiazolylamino)-4-desoxypodophyllotoxin]", "IC50 values against KB cells": "unexpectedly low"}
{"smiles": "COc1cc([C@@H]2c3cc4c(cc3[C@@H](Nc3ncc([N+](=O)[O-])s3)[C@@H]3COC(=O)[C@H]23)OCO4)cc(OC)c1O", "note": "[Compound 49, 4′-O-demethyl-4β-(5″-nitro-2″-thiazolylamino)-4-desoxypodophyllotoxin]", "IC50 values against KB cells": "unexpectedly low"}
{"smiles": "CCOC(=O)c1ccc(N[C@@H]2c3cc4c(cc3[C@@H](c3cc(OC)c(O)c(OC)c3)[C@H]3C(=O)OC[C@H]32)OCO4)nc1", "note": "[Compound 39]", "IC50 values against KB cells": "unexpectedly low"}
{"smiles": "COc1cc([C@@H]2c3cc4c(cc3[C@@H](Nc3nc(COC(C)=O)cs3)[C@@H]3COC(=O)[C@H]23)OCO4)cc(OC)c1O", "note": "[Compound 36, 4′-O-demethyl-4β-[4″-(methyl-O-acetyl)-2″-thiazolylamino]-4-desoxypodophyllotoxin]", "IC50 values against KB cells": "unexpectedly low"}
